The results in this text go back to PubChem BioAssay (NCI).

Test systems include U251 CNS; ACHN renal; SNB-75 CNS; MOLT-4 leukemia; KM12 colon; EKVX NSCLC; UACC-62 melanoma; LOX IMVI melanoma; OVCAR-4 ovarian; HS 578T breast.
What all share (assay): NCI tumour cell line growth inhibition, 48 h

Molecules are shown by their SMILES.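 Cells were grown in 96-well plates and exposed to each compound for 48 hours at five concentrations; endpoints were interpolated linearly between bracketing concentrations, or set to the highest concentration if not reached. GI50 marks 50% less growth. TGI: concentration producing complete growth inhibition.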 Bounds are passed on as bounds.

`O=C(/C=C/c1ccccc1F)C(c1ccccc1)c1ccccc1`: the TGI in the experiment on U251 CNS amounted to 13 µM; in the experiment with ACHN renal it was 7.66 µM; with SNB-75 CNS it was 19.2 µM; with MOLT-4 leukemia it was 6.6 µM; in the experiment with KM12 colon, 15 µM; in the experiment with EKVX NSCLC, 24.4 µM. Further, the TGI with UACC-62 melanoma was determined as 4.56 µM; with LOX IMVI melanoma, 3.2 µM.

For the molecule `C[Si](C)(C)/C(Br)=C\CCN1C(=O)CCC1O` (stereo unspecified), the TGI in the experiment on U251 CNS, with ACHN renal, with SNB-75 CNS, with MOLT-4 leukemia, with OVCAR-4 ovarian and in the experiment on KM12 colon was greater than 100 µM each time. Also, the TGI in the experiment on EKVX NSCLC, in the experiment on UACC-62 melanoma and with LOX IMVI melanoma was greater than 100 µM in each case.

In the case of `CCCCOC(=O)N[C@H]1CCc2cc(OC)c(OC)c(OC)c2-c2ccc(SC)c(=O)cc21`, the TGI in the experiment with U251 CNS was 3.87 µM; with ACHN renal, 13.1 µM; with SNB-75 CNS it was 2.99 µM; in the experiment on MOLT-4 leukemia, 57.8 µM; in the experiment on OVCAR-4 ovarian it was greater than 96.5 µM; in the experiment on KM12 colon it was less than 0.0464 µM. Also, the TGI with EKVX NSCLC was greater than 100 µM; in the experiment with UACC-62 melanoma, 24.8 µM; in the experiment on LOX IMVI melanoma, 20.9 µM.

For the molecule `Cc1ccc(S(=O)(=O)N2CCCCC2CCO)cc1` (stereo unspecified), the TGI in the experiment on U251 CNS, in the experiment on ACHN renal, in the experiment on SNB-75 CNS, in the experiment on MOLT-4 leukemia, with OVCAR-4 ovarian and in the experiment with KM12 colon was greater than 100 µM in each case. The TGI with EKVX NSCLC and with UACC-62 melanoma was greater than 100 µM in each case.

In the case of `O=C1C(c2ccccc2)=C(c2ccccc2)C(c2ccccc2)/C1=C1\C(=O)C(c2ccccc2)=C(c2ccccc2)C1c1ccccc1` (stereo unspecified), the TGI in the experiment on U251 CNS, in the experiment on ACHN renal, with SNB-75 CNS, in the experiment on MOLT-4 leukemia, in the experiment with OVCAR-4 ovarian and in the experiment with KM12 colon was greater than 100 µM throughout. Besides, the TGI in the experiment with EKVX NSCLC, in the experiment with UACC-62 melanoma and in the experiment on LOX IMVI melanoma was greater than 100 µM each time.

For `CCOc1ccc(NC(=O)C2=C(C)NC(C)=C(C(=O)Nc3ccc(OCC)cc3)C2c2ccc([N+](=O)[O-])cc2)cc1`, the TGI with U251 CNS is greater than 100 µM; in the experiment with ACHN renal it was 87.4 µM; with SNB-75 CNS, greater than 100 µM; in the experiment with MOLT-4 leukemia, 66.9 µM; in the experiment on OVCAR-4 ovarian, greater than 100 µM; in the experiment with KM12 colon, greater than 100 µM. The TGI in the experiment on EKVX NSCLC and with LOX IMVI melanoma was greater than 100 µM each time.

With `N#C/C(=C/N1CCN(C(=O)c2ccco2)C1=S)C(N)=O`, the GI50 is 11.5 µM with U251 CNS; 11.8 µM in the experiment on ACHN renal; greater than 100 µM with SNB-75 CNS; 39.8 µM with MOLT-4 leukemia; 18.5 µM in the experiment on OVCAR-4 ovarian; 7.51 µM in the experiment on KM12 colon. In addition, the values for the GI50 in the experiment with EKVX NSCLC, in the experiment with UACC-62 melanoma and in the experiment with LOX IMVI melanoma were 0.342 µM, 14 µM and 2.5 µM, respectively. Also, the TGI was 46.8 µM in the experiment on U251 CNS; 38.8 µM with ACHN renal; greater than 100 µM in the experiment on SNB-75 CNS; greater than 100 µM in the experiment on MOLT-4 leukemia; 73.8 µM in the experiment on OVCAR-4 ovarian; 98.2 µM in the experiment with KM12 colon. The TGI stood at 0.982 µM in the experiment with EKVX NSCLC, 38.3 µM in the experiment with UACC-62 melanoma and 7.69 µM with LOX IMVI melanoma.

As for `NS(=O)(=O)c1ccc(-n2nc(-c3ccc(Cl)cc3)cc2C2=CC(=O)C=CC2=O)cc1`, the GI50 in the experiment on ACHN renal was 20.8 µM; in the experiment with MOLT-4 leukemia, greater than 100 µM; in the experiment with KM12 colon, 16 µM; with EKVX NSCLC, 28.4 µM; in the experiment with UACC-62 melanoma, 14.2 µM; in the experiment with HS 578T breast, 23.8 µM. Besides, the TGI in the experiment on ACHN renal was 35.1 µM; in the experiment with MOLT-4 leukemia it was greater than 100 µM; in the experiment on KM12 colon, 36.1 µM; in the experiment on EKVX NSCLC, 91.1 µM; in the experiment with UACC-62 melanoma, 34.1 µM; in the experiment with HS 578T breast it was 72.6 µM.

Take `CC(=O)O[C@H]1CC[C@@]2(C)C(=CC[C@@H]3C2CC[C@]2(C)Nc4oncc4CC32)C1` (stereo partly specified): the TGI is greater than 100 µM in the experiment on U251 CNS; 72.4 µM in the experiment with ACHN renal; greater than 100 µM with SNB-75 CNS; 28.9 µM in the experiment with MOLT-4 leukemia; 34.4 µM with OVCAR-4 ovarian; 61.4 µM with KM12 colon. Moreover, the TGI in the experiment with EKVX NSCLC is greater than 100 µM; in the experiment on UACC-62 melanoma, 99 µM.

As for `Cc1cc(Cl)ccc1NC(=O)C1C(=O)N(c2ccc(Cl)cc2C)C(=O)/C1=N\N` (stereo unspecified), the TGI in the experiment with U251 CNS, in the experiment on ACHN renal, with SNB-75 CNS, with MOLT-4 leukemia, in the experiment with OVCAR-4 ovarian and with KM12 colon was greater than 100 µM in each case. For the same molecule, the TGI with EKVX NSCLC, in the experiment on UACC-62 melanoma and with LOX IMVI melanoma was greater than 100 µM each time.

Consider `Cc1cccc(C)c1NC(=O)C(=O)C1C(=O)N(c2ccccc2)N=C1N` (stereo unspecified), for which the TGI in the experiment on U251 CNS, in the experiment with ACHN renal, in the experiment on SNB-75 CNS, in the experiment on MOLT-4 leukemia, in the experiment on OVCAR-4 ovarian and in the experiment with KM12 colon was greater than 100 µM each time. Further, the TGI in the experiment with EKVX NSCLC, in the experiment on UACC-62 melanoma and in the experiment with LOX IMVI melanoma was greater than 100 µM in each case.

As to `N#CC(C#N)=C1NC(=O)C(c2ccccc2)C(=O)N1` (stereo unspecified), the TGI in the experiment with U251 CNS, in the experiment with SNB-75 CNS, with MOLT-4 leukemia, in the experiment on OVCAR-4 ovarian, in the experiment on KM12 colon and in the experiment with EKVX NSCLC was greater than 100 µM in each case. The TGI in the experiment with UACC-62 melanoma and with LOX IMVI melanoma was greater than 100 µM throughout.

Take `Cc1ccc(/C=C2\CCOC2=O)cc1`: the GI50 with U251 CNS, in the experiment on ACHN renal, in the experiment with SNB-75 CNS, with MOLT-4 leukemia, with OVCAR-4 ovarian and in the experiment with KM12 colon was greater than 100 µM in each case. Also, the GI50 in the experiment on UACC-62 melanoma and in the experiment on LOX IMVI melanoma was greater than 100 µM in each case. Besides, the TGI in the experiment with U251 CNS, in the experiment with ACHN renal, with SNB-75 CNS, with MOLT-4 leukemia, in the experiment with OVCAR-4 ovarian and with KM12 colon was greater than 100 µM each time. Further, the TGI with UACC-62 melanoma and in the experiment on LOX IMVI melanoma was greater than 100 µM each time.
